“And” between values parts separate entries of the source, which are not always exact repeats. Identical values can stand only once. Like-named read-outs stand apart in the source and are kept apart here. Values belong to the compound of their own block, whether it stands above or below them.
Assays:
Gal-8C [1] = target: T1, Gal-8C (Homo sapiens, UniProt O00214); set-up: method as in PMID 34225180; details: cited from earlier work
T1 construct: than to the C-terminal domain (Gal-8C)
T1 sequence (O00214 187-317 limits assumed): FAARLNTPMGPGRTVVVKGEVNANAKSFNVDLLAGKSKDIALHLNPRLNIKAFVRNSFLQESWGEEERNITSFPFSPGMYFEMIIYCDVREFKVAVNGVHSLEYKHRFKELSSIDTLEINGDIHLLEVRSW

[2] = target: T2, Gal-8N (galectin-8 N-terminal domain) (Homo sapiens, UniProt O00214); details: cited from earlier work
T2 construct: made in house
T2 sequence (O00214 19-152 limits assumed): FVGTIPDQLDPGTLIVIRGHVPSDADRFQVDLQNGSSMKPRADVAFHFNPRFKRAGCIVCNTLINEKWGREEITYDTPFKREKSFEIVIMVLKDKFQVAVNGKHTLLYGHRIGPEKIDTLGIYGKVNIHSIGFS

Gal-1 [3] = target: T3, Gal-1 (Homo sapiens, UniProt P09382); set-up: method as in PMID 34225180; details: cited from earlier work
T3 construct: made in house

Gal-3 [4] = target: T4, Gal-3 (Homo sapiens, UniProt P17931); details: cited from earlier work
T4 construct: made in house

Gal-8N [5] = target: T5, Gal-8N (Homo sapiens, UniProt O00214); assay: isothermal titration calorimetry (ITC), binding to Gal-8N
T5 construct: consisting of residues 4-158 was produced by Lund Protein Production Platform; made in house; host or cells: E. coli TUNER(DE3)
T5 sequence (O00214 4-158): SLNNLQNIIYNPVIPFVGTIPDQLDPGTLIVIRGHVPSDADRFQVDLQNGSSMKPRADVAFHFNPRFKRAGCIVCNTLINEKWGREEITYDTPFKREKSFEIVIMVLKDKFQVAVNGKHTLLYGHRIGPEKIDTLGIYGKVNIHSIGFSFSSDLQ
Procedure: Isothermal titration calorimetry (ITC) experiments were conducted using a Microcal PEAQ-ITC isothermal titration calorimeter (Malvern Instruments, Malvern Panalytical Ltd) at 25 °C. Lyophilized Gal-8N was first dissolved in PBS buffer (with a 4.3 mM β-mercaptoethanol) with a pH = 7.4 and Gal-8N was dialyzed with a 0.5–3 mL Slide-A-Lyzer™ 7k MWCO Dialysis Cassette in the same buffer. To remove residual lactose, Gal-8N was additionally purified using Superdex 75 Increase column equilibrated in PBS with 5% DMSO. Fractions containing Gal-8N were collected and concentrated with Amicon® Ultra-0.5 Centrifugal Filter Device with a 10k MWCO to a final concentration of about 40 µM. A280 was measured using the NanoDrop^TM One Microvolume UV-VIS spectrophotometer and the concentration of Gal-8N was calculated (ε = 11460 L mol^−1 cm^−1 was used). 16 mM stock solutions of 1, 11, and 29 were prepared in pure DMSO. The 16 mM stock solutions were diluted to 800 μM with pure PBS and then to the final concentration of 560 μM (the final content of DMSO was 5%). Titrations were performed with 19 injections of Gal-8N inhibitors 1, 11 (560 μM) and 29 (800 μM) with a following settings: reference power = 10.0 µcal s^−1, feedback = high, stir speed = 750, Initial delay = 100 s, first spacing = 200 s, the other spacings = 150 s.
Raw thermograms were exported and integrated with the NITPIC (version 2.0.7)[43] and then analyzed with SEDPHAT (version 15.2)[44],[45]. Parameter and error analysis were performed using the Monte-Carlo approach for nonlinear regression with 1000 iterations as implemented in SEDPHAT.

Gal-8N [6] = target: T5, Gal-8N; assay: ligand efficiency (LE) and ligand-lipophilicity efficiency (LLE) calculations; details: for LLE: from Gal-8N Kd and clogP; for LE: from Gal-8N Kd and number of non-hydrogen atoms
Gal-1 [7] = target: T3, Gal-1; assay: competitive fluorescence polarisation assay, Gal-1; format: binding; details: for Kd: competitive FP, mean ± SEM of n = 4 to 8, 20 °C; for Gal-1 selectivity ratio Kd (Gal-1)/Kd (Gal-8N): ratio of FP Kd values
Procedure: (§1) Human galectins-1, -3, and -8N were expressed and purified as described previously[8],[23],[24]. Competitive fluorescence polarization assays were performed with a PHERAstar FS plate reader with software PHERAstar Mars version 2.10 R3 (BMG, Offenburg, Germany) and Tecan Spark multimode microplate reader (Tecan Trading AG, Switzerland), where a fluorescence anisotropy of fluorescent-tagged probes was measured by excitation at 485 nm and emission at 520 nm. Experiments were performed at 20 °C with Gal-1 at 0.5 µM, Gal-3 at 0.2 µM, and Gal-8N at 0.4 µM. Fluorescent probes used for experiments were 3,3′-dideoxy-3-[4-(fluorescein-5-yl-carbonylaminomethyl)-1H-1,2,3-triazol-1-yl]-3′-(3,5-di-methoxybenzamido)-1,1′-sulfanediyl-di-β-D-galactopyranoside at 0.02 µM for Gal-1 and -3 and 2-(fluorescein-5-yl-carbonylamino)ethyl β-D-galactopyranosyl(1-4)-2-acetamido-2-deoxy-β-D-glucopyranosyl(1–3)-β-D-galactopyranosyl(1–4)-β-D-glucopyranoside at 0.1 µM for Gal-8N in each well. Compounds were first dissolved in pure DMSO at 20 mM concentration and later diluted in 5% DMSO in PBS solution to 5-7 different concentrations. Each concentration was tested in duplicate. The highest inhibitor concentrations tested were 1.5 mM. The average values of Kd and SEM (standard error mean) were calculated from 4 to 8 duplicate measurements, showing 10–90% inhibition.

Gal-3 [8] = target: T4, Gal-3; assay: competitive fluorescence polarisation assay, Gal-3; format: binding; details: for Kd: competitive FP, mean ± SEM of n = 4 to 8, 20 °C, read-out: Kd Gal-3; for Gal-3 selectivity ratio Kd (Gal-3)/Kd (Gal-8N): ratio of FP Kd values
Procedure: as §1

Gal-8C [9] = target: T1, Gal-8C; assay: competitive fluorescence polarisation assay, Gal-8C; format: binding; details: for Kd: competitive FP, mean ± SEM of n = 4 to 8; for Gal-8C selectivity ratio Kd (Gal-8C)/Kd (Gal-8N): ratio of FP Kd values
[10] = target: T2, Gal-8N (galectin-8 N-terminal domain); assay: competitive fluorescence polarisation assay, Gal-8N; format: binding; details: competitive FP, mean ± SEM of n = 4 to 8, 20 °C; read-out: Kd Gal-8N
Procedure: as §1

[11] = 25 °C, PBS buffer, 1:1 binding model, n = 2

T4 sequence (P17931 whole entry): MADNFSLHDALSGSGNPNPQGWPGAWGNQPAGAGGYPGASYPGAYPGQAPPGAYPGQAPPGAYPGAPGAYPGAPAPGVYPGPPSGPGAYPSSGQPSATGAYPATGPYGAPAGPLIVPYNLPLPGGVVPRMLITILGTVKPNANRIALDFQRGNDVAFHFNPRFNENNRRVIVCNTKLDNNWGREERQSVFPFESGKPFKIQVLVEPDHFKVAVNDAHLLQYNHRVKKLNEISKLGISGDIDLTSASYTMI
T3 sequence (P09382 whole entry): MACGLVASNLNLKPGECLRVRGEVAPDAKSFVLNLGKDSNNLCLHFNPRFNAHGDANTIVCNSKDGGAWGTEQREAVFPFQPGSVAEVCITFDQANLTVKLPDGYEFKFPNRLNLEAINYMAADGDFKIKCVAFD

- LLE (Gal-8N [6]): 0.888
- LE (Gal-8N [6]): 0.167 (kcal/mol)/heavy atom
- Kd (Gal-1 [7]): 45 ± 0.8 µM
- Gal-1 selectivity ratio Kd (Gal-1)/Kd (Gal-8N) (Gal-1 [7]): 41
- Kd (Gal-3 [8]): 6.2 ± 1.1 µM
- Gal-3 selectivity ratio Kd (Gal-3)/Kd (Gal-8N) (Gal-3 [8]): 5.6
- Kd (Gal-8C [9]): 201 ± 37 µM
- Gal-8C selectivity ratio Kd (Gal-8C)/Kd (Gal-8N) (Gal-8C [9]): 183
- Kd [10]: 1100 ± 70 nM
Compound: Cn1c(CO[C@H]2[C@@H](O)[C@@H](CO)O[C@H](Sc3ccc(Cl)c(Cl)c3)[C@@H]2OCc2cn(-c3ccc(C(=O)O)cc3)nn2)nc2ccc(C(=O)O)cc21 [Compound 16c]

- LLE (Gal-8N [6]): 2.08
- LE (Gal-8N [6]): 0.231 (kcal/mol)/heavy atom
- Kd (Gal-1 [7]): 16 ± 0.8 µM
- Gal-1 selectivity ratio Kd (Gal-1)/Kd (Gal-8N) (Gal-1 [7]): 12.3
- Kd (Gal-3 [8]): 4.5 ± 0.7 µM
- Gal-3 selectivity ratio Kd (Gal-3)/Kd (Gal-8N) (Gal-3 [8]): 3.5
- Kd (Gal-8C [9]): 358 ± 29 µM
- Gal-8C selectivity ratio Kd (Gal-8C)/Kd (Gal-8N) (Gal-8C [9]): 275
- Kd [10]: 1300 ± 50 nM
Compound: CO[C@@H]1[C@@H](OCc2nc3ccc(C(=O)O)cc3n2C)[C@@H](O)[C@@H](CO)O[C@@H]1Sc1ccc(Cl)c(Cl)c1 [Compound 32]

- LLE (Gal-8N [6]): 0.203
- LE (Gal-8N [6]): 0.189 (kcal/mol)/heavy atom
- Kd (Gal-1 [7]): 14 ± 1.2 µM
- Gal-1 selectivity ratio Kd (Gal-1)/Kd (Gal-8N) (Gal-1 [7]): 8.8
- Kd (Gal-3 [8]): 4.2 ± 0.6 µM
- Gal-3 selectivity ratio Kd (Gal-3)/Kd (Gal-8N) (Gal-3 [8]): 2.6
- Kd (Gal-8C [9]): 301 ± 28 µM
- Gal-8C selectivity ratio Kd (Gal-8C)/Kd (Gal-8N) (Gal-8C [9]): 188
- Kd [10]: 1600 ± 60 nM
Compound: Cn1c(CO[C@H]2[C@@H](O)[C@@H](CO)O[C@H](Sc3ccc(Cl)c(Cl)c3)[C@@H]2OCc2ccc(F)cc2)nc2ccc(C(=O)O)cc21 [Compound 8d]

Continued, compound first:

Compound: Cn1c(CO[C@@H]2[C@@H](O)[C@@H](Sc3ccc(Cl)c(Cl)c3)O[C@H](CO)[C@@H]2O)nc2ccc(C(=O)O)cc21 [Compound 1, reference compound]
- Gal-8C selectivity ratio Kd (Gal-8C)/Kd (Gal-8N) (Gal-8C [1]): 422
- fold more potent than D-galactose (Gal-8N) [2]: ~ 5000 fold
- Gal-1 selectivity ratio Kd (Gal-1)/Kd (Gal-8N) (Gal-1 [3]): 72
- Gal-3 selectivity ratio Kd (Gal-3)/Kd (Gal-8N) (Gal-3 [4]; selectivity for Gal-8N over Gal-3 (fold)): 2.8
- -TΔS (Gal-8N [5]; [11]): 14 kJ/mol and 14 ± 13 kJ/mol
- Kd (Gal-8N [5]; [11]): 5 µM
- ΔG (Gal-8N [5]; [11]): -30.2 kJ/mol and -30.2 ± 0.6 kJ/mol
- ΔH (Gal-8N [5]; [11]): -44 kJ/mol and -44 ± 12 kJ/mol
- -TΔS (Gal-8N [5]; TRIS buffer): 19 kJ/mol
- Kd (Gal-8N [5]; TRIS buffer): 4.5 µM
- ΔG (Gal-8N [5]; TRIS buffer): -30.7 kJ/mol
- ΔH (Gal-8N [5]; TRIS buffer): -50 kJ/mol

Compound: O=C(O)[C@H](CC1CCCCC1)O[C@@H]1[C@@H](O)[C@@H](Sc2ccc(Cl)c(Cl)c2)O[C@H](CO)[C@@H]1O [Compound 2]
- Kd [2]: 12 µM
- Kd (Gal-3 [4]; Fig. 1, earlier inhibitors, read-out: Kd: galectin-3): 82 µM
- selectivity over Gal-3 (Gal-3 [4]; Gal-8N over Gal-3): 6.8 fold

Compound: Cc1cccc(CO[C@@H]2[C@@H](OCc3nc4ccc(C(=O)O)cc4n3C)[C@@H](O)[C@@H](CO)O[C@@H]2Sc2ccc(Cl)c(Cl)c2)c1 [Compound 8b]
- LLE (Gal-8N [6]): -0.257
- LE (Gal-8N [6]): 0.185 (kcal/mol)/heavy atom
- Kd (Gal-1 [7]): 19 ± 0.67 µM
- Gal-1 selectivity ratio Kd (Gal-1)/Kd (Gal-8N) (Gal-1 [7]): 9
- Kd (Gal-3 [8]): 8.2 ± 0.7 µM
- Gal-3 selectivity ratio Kd (Gal-3)/Kd (Gal-8N) (Gal-3 [8]): 3.9
- Kd (Gal-8C [9]): 303 ± 19 µM
- Gal-8C selectivity ratio Kd (Gal-8C)/Kd (Gal-8N) (Gal-8C [9]): 144
- Kd [10]: 2100 ± 100 nM
